Assay results taken from patent publication US7511040B2, “Imidazopyrazines as protein kinase inhibitors” (Schering Corporation, priority 2006, dated 2009).

Tests used:
[1] = biological target: T1, recombinant Aurora A (Homo sapiens, UniProt O14965); experiment: Aurora A enzyme assay (IMAP fluorescence polarization, Tamra-PKAtide substrate); format: biochemical; details: 8 nM enzyme, 25 μM ATP, 100 nM Tamra-PKAtide, 2 hours at room temperature
T1 construct: purchased Upstate 14-511
T1 sequence (O14965 1-403): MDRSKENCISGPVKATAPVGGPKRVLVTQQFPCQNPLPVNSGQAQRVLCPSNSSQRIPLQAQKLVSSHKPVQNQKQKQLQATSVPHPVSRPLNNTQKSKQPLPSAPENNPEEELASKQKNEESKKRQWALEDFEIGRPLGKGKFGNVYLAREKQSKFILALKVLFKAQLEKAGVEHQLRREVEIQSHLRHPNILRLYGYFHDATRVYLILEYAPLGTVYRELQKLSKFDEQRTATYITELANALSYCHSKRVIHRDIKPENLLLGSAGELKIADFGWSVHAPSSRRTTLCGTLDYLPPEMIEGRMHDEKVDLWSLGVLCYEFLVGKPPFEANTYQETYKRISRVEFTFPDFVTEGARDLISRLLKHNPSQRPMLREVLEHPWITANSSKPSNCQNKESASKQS
Description: (§1) An in vitro assay was developed that utilizes recombinant Aurora A or Aurora B as an enzyme source and a peptide based on PKA as the substrate.
Aurora A kinase assays were performed in low protein binding 384-well plates (Corning Inc). All reagents were thawed on ice. Compounds were diluted in 100% DMSO to desirable concentrations. […] For each reaction, 14 μl containing TAMRA-PKAtide, ATP, DTT and kinase buffer were combined with 1 μl diluted compound. The kinase reaction was started by the addition of 5 μl diluted enzyme. The reaction was allowed to run for 2 hours at room temperature. […] After an additional 2 hours, fluorescent polarization was measured using an Analyst AD (Molecular devices).
(§2) Dose-response curves were plotted from inhibition data generated each in duplicate, from 8 point serial dilutions of inhibitory compounds. Concentration of compound was plotted against kinase activity, calculated by degree of fluorescent polarization. To generate IC50 values, the dose-response curves were then fitted to a standard sigmoidal curve and IC50 values were derived by nonlinear regression analysis.

[2] = biological target: T2, recombinant Aurora B (Homo sapiens, UniProt Q96GD4); experiment: Aurora B enzyme assay (IMAP fluorescence polarization, Tamra-PKAtide substrate); format: biochemical; details: 26 nM enzyme, 50 μM ATP, 100 nM Tamra-PKAtide, 2 hours at room temperature
T2 construct: purchased Invitrogen pv3970
T2 sequence (Q96GD4 whole entry): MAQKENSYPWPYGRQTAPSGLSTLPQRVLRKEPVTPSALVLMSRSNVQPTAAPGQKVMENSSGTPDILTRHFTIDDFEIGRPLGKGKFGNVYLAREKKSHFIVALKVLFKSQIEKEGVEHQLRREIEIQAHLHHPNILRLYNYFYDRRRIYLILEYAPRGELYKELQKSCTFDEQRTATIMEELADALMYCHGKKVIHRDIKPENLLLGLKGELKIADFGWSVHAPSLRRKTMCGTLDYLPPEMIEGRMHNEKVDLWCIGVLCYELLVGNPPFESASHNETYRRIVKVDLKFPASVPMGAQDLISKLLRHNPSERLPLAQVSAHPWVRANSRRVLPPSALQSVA
Description: as §1
Aurora A kinase assays were performed in low protein binding 384-well plates (Corning Inc). All reagents were thawed on ice. Compounds were diluted in 100% DMSO to desirable concentrations. Each reaction consisted of 26 nM enzyme (Aurora B, Invitrogen cat#pv3970), 100 nM Tamra-PKAtide (Molecular Devices, 5TAMRA-GRTGRRNSICOOH), 50 μM ATP (Roche), 1 mM DTT (Pierce), and kinase buffer (10 mM Tris, 10 mM MgCl2, 0.01% Tween 20). For each reaction, 14 μl containing TAMRA-PKAtide, ATP, DTT and kinase buffer were combined with 1 μl diluted compound. The kinase reaction was started by the addition of 5 μl diluted enzyme. The reaction was allowed to run for 2 hours at room temperature. The reaction was stopped by adding 60 μl IMAP beads (1:400 beads in progressive (94.7% buffer A: 5.3% buffer B) 1× buffer, 24 mM NaCl). After an additional 2 hours, fluorescent polarization was measured using an Analyst AD (Molecular devices).
as §2

IC50 [1] [nM]	IC50 [2] [nM]	Compound
661		Cc1cc(Nc2nc(Sc3nc4ccccc4s3)cn3c(-c4cn[nH]c4)cnc23)sn1 [Example 4-1]
	11	CSc1cn2c(-c3cn[nH]c3)cnc2c(Nc2cc(C)ns2)n1 [Example 4-3]
600	442	Cc1cc(Nc2nc(Sc3ccccc3Cl)cn3c(-c4cn[nH]c4)cnc23)sn1 [Example 4-4]
	432	Cc1cc(Nc2nc(Sc3ccccn3)cn3c(-c4cn[nH]c4)cnc23)sn1 [Example 4-5]
	15	CNC(=O)CSc1cn2c(-c3cn[nH]c3)cnc2c(Nc2cc(C)ns2)n1 [Example 4-6]
74	24	COc1ccccc1Sc1cn2c(-c3cn[nH]c3)cnc2c(Nc2cc(C)ns2)n1 [Example 4-10]
50	114	COc1cccc(Sc2cn3c(-c4cn[nH]c4)cnc3c(Nc3cc(C)ns3)n2)c1 [Example 4-11]
	24	COc1ccc(Sc2cn3c(-c4cn[nH]c4)cnc3c(Nc3cc(C)ns3)n2)cc1 [Example 4-12]
	612	Cc1cc(Nc2nc(Sc3ccc(Cl)cc3)cn3c(-c4cn[nH]c4)cnc23)sn1 [Example 4-13]
9	4	CC(=O)Nc1ccc(Sc2cn3c(-c4cn[nH]c4)cnc3c(Nc3cc(C)ns3)n2)cc1 [Example 4-14]
	9	Cc1cc(Nc2nc(SCC(C)O)cn3c(-c4cn[nH]c4)cnc23)sn1 (centres unmarked) [Example 4-18]
25	67	Cc1cc(Nc2nc(Sc3ccc(NC(=O)C4CC4)cc3)cn3c(-c4cn[nH]c4)cnc23)sn1 [Example 4-19]
	10	Cc1cc(Nc2nc(Sc3cccc(Cl)c3)cn3c(-c4cn[nH]c4)cnc23)sn1 [Example 4-20]
	285	Cc1cc(Nc2nc(Sc3ccncc3)cn3c(-c4cn[nH]c4)cnc23)sn1 [Example 4-21]
	7	Cc1cc(Nc2nc(Sc3nccs3)cn3c(-c4cn[nH]c4)cnc23)sn1 [Example 4-22]
	66	Cc1cc(Nc2nc(Sc3ncc[nH]3)cn3c(-c4cn[nH]c4)cnc23)sn1 [Example 4-23]
	35	Cc1cc(Nc2nc(Sc3ncn[nH]3)cn3c(-c4cn[nH]c4)cnc23)sn1 [Example 4-24]
	< 1000	Cc1cc(Nc2nc(SC3CC3)cn3c(-c4cn[nH]c4)cnc23)sn1 [Example 4-25]
> 5000	> 3000	Cc1cc(Nc2nc(SC3CCNC3)cn3c(-c4cnn(C)c4)cnc23)sn1 (centres unmarked) [Example 4-26]
697	223	CSc1cn2c(-c3cc[nH]n3)cnc2c(Nc2cc(C)ns2)n1 [Example 4-27]
16500	> 3000	CSc1cn2c(-c3cc(C4CC4)[nH]n3)cnc2c(Nc2cc(C)ns2)n1 [Example 4-28]
2530	1320	CSc1cn2c(-c3ccco3)cnc2c(Nc2cc(C)ns2)n1 [Example 4-30]
7540	710	CNc1ncc(-c2cnc3c(Nc4cc(C)ns4)nc(SC)cn23)s1 [Example 4-31]
14200	> 3000	CSc1cn2c(-c3cccc(C)c3)cnc2c(Nc2cc(C)ns2)n1 [Example 4-32]
